According to publication PMC3561128, “Preclinical evaluation of carbon-11 and fluorine-18 sulfonamide derivatives for in vivo radiolabeling of erythrocytes” (EJNMMI Research, 2013):
Where two headings read alike, the source gives them in different places.

How the values were obtained:
RBCs [1] = system: RBCs; design: method as in PMID 1647382, PMID 1647383; conditions: rats, 24 h p.i.; cited from earlier work
RBCs [2] = system: RBCs; design: method as in PMID 1647382, PMID 1647383; conditions: human volunteers, 24 h p.i.; cited from earlier work
hCA II = hCA II (Homo sapiens, UniProt P00918); assay: CA-catalyzed CO2 hydration, stopped-flow inhibition assay; format: biochemical; conditions: human (cloned) isozyme; CO2 hydration reaction at 20°C; n = 3
Procedure: (§1) Phenol red (0.2 mM) was used as indicator, working at the absorbance maximum of 557 nm, with 10 mM Hepes as buffer (pH 7.5) and 0.1 M Na2SO4 (for maintaining constant ionic strength) at 25°C following the CA-catalyzed CO2 hydration reaction for a period of 10 to 100 s (the uncatalyzed reaction needs around 60 to 100 s under assay conditions, whereas the catalyzed reactions take around 6 to 10 s). The CO2 concentrations ranged from 1.7 to 17 mM for the determination of kinetic parameters. Each compound was tested in the concentration range between 0.01 nM to 100 μM. The uncatalyzed rates were determined in the same manner and subtracted from the total observed rates. Stock solutions of the compounds (0.1 mM) were prepared in distilled water with 10% to 20% (v/v) DMSO (which is non-inhibitory at these concentrations), and dilutions up to 0.01 nM were made with distilled water. Inhibitor and enzyme solutions were preincubated together for 15 min at room temperature prior to the assay, in order to allow the formation of enzyme-inhibitor complex. The inhibition constants were obtained by nonlinear least square methods using PRISM 3 (GraphPad Software, La Jolla, CA, USA), and they represent the mean from at least three different determinations.

hCA I = hCA I (Homo sapiens, UniProt P00915); assay: as above; format: biochemical; conditions: human (cloned) isozyme; CO2 hydration reaction at 20°C; n = 3
Chain of hCA I (P00915 whole entry): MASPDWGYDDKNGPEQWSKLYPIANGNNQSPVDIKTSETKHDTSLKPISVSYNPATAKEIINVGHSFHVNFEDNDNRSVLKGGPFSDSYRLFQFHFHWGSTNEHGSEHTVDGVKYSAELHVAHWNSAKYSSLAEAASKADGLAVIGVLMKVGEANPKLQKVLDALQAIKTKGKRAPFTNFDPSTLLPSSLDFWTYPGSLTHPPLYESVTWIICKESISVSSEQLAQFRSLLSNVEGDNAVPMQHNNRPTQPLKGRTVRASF
Procedure: as §1

[3] = Log D (1-octanol/phosphate buffer pH 7.4), shake flask method; format: physicochemical
Procedure: Determination of the distribution coefficient (log D1-octanol/phosphate buffer pH 7.4), was carried out by a shake flask method. An aliquot (25 μL) of the tracer agents ^18F]-(3), ^11C]-(4), ^18F]-(5), or ^11C]-(6) (185 to 555 kBq/mL) was added to a polypropylene tube (5 mL; Sarstedt, Nümbrecht, Germany) containing 2 mL of 0.025 M sodium phosphate buffer pH 7.4 and 2 mL of 1-octanol. The tube was vortexed for 2 min at room temperature followed by centrifugation at 3,000 rpm for 10 min (Eppendorf centrifuge 5810, Eppendorf, Westbury, NY, USA). Aliquots of 50 μL of the 1-octanol phase and 500 μL of the phosphate buffer phase were pipetted into separate tared Eppendorf tubes with adequate care to avoid cross contamination between the two phases. The samples were weighed, and radioactivity was quantified using an automated gamma counter. The experiments were carried out sixfold.

SMILES | Activity associated with RBCs (RBCs [1]) | Activity associated with RBCs (RBCs [2]) | Ki (hCA II) [µM] | Ki (hCA I) [µM] | logD [3]
NS(=O)(=O)c1ccc(I)cc1 [p-iodobenzenesulfonamide] | about 50 % of the injected dose | more than 88 % of the ID | – | – | –
COc1ccc(S(N)(=O)=O)cc1 [(6)] | – | – | 0.422 | 24.7 | 0.42
